Laboratory results taken from PubChem BioAssay (NCI).
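How tested: cells in 96-well plates exposed to compound for 48 hours at five concentrations. GI50 marks 50% less growth. At the TGI there is no net growth.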

Columns and labels:
Test in all cases: inhibition of tumour cell growth, NCI panel, 48 h
[1] = tested on: HS 578T breast
[2] = tested on: MDA-MB-231 breast
[3] = tested on: UACC-257 melanoma
[4] = tested on: TK-10 renal
[5] = tested on: A498 renal
[6] = tested on: K-562 leukemia
[7] = tested on: SK-MEL-5 melanoma
[8] = tested on: MOLT-4 leukemia
[9] = tested on: OVCAR-4 ovarian
[10] = tested on: CCRF-CEM leukemia
[11] = tested on: RPMI-8226 leukemia
[12] = tested on: SK-OV-3 ovarian
[13] = tested on: EKVX NSCLC
[14] = tested on: HOP-92 NSCLC
[15] = tested on: CAKI-1 renal
[16] = tested on: MALME-3M melanoma
[17] = tested on: NCI/ADR-RES ovarian
[18] = tested on: HCT-116 colon
[19] = tested on: NCI-H460 lung
[20] = tested on: HOP-62 NSCLC
[21] = tested on: SW-620 colon
[22] = tested on: SR leukemia
[23] = tested on: OVCAR-5 ovarian
[24] = tested on: SNB-75 CNS
[25] = tested on: SF-539 CNS
[26] = tested on: SK-MEL-2 melanoma
[27] = tested on: 786-0 renal
[28] = tested on: MCF7 breast
[29] = tested on: SF-268 CNS
[30] = tested on: SF-295 CNS
[31] = tested on: ACHN renal
[32] = tested on: MDA-MB-435
[33] = tested on: OVCAR-8 ovarian
[34] = tested on: U251 CNS
[35] = tested on: M14 melanoma
[36] = tested on: BT-549 breast
[37] = tested on: SK-MEL-28 melanoma
[38] = tested on: KM12 colon
[39] = tested on: NCI-H522 lung
[40] = tested on: DU-145 prostate
[41] = tested on: SN12C renal
[42] = tested on: A549 NSCLC
[43] = tested on: SNB-19 CNS
[44] = tested on: HT29 colon
[45] = tested on: HCC-2998 colon
[46] = tested on: HCT-15 colon
[47] = tested on: NCI-H23 lung
[48] = tested on: HL-60(TB) leukemia
[49] = tested on: COLO 205 colon
[50] = tested on: NCI-H226 lung
[51] = tested on: PC-3 prostate
[52] = tested on: LOX IMVI melanoma

Cc1cccc2cc(/C=C/C(=O)/C=C/c3ccc(Cl)cc3)c(=O)[nH]c12
GI50 [1]: > 100 µM | TGI [1]: > 100 µM | GI50 [2]: 3.71 µM | TGI [2]: > 100 µM | GI50 [3]: > 100 µM | TGI [3]: > 100 µM | GI50 [4]: > 100 µM | TGI [4]: > 100 µM | GI50 [5]: > 100 µM | TGI [5]: > 100 µM | GI50 [6]: 3.8 µM | TGI [6]: > 100 µM | GI50 [7]: > 100 µM | TGI [7]: > 100 µM | GI50 [8]: 5.69 µM | TGI [8]: > 100 µM | GI50 [9]: > 100 µM | TGI [9]: > 100 µM | GI50 [10]: 3.98 µM | TGI [10]: 88.8 µM | GI50 [11]: 0.331 µM | TGI [11]: 1.26 µM | GI50 [12]: > 100 µM | TGI [12]: > 100 µM | GI50 [13]: > 100 µM | TGI [13]: > 100 µM | GI50 [14]: > 100 µM | TGI [14]: > 100 µM | GI50 [15]: > 100 µM | TGI [15]: > 100 µM | GI50 [16]: > 100 µM | TGI [16]: > 100 µM | GI50 [17]: > 100 µM | TGI [17]: > 100 µM | GI50 [18]: 0.259 µM | TGI [18]: 0.635 µM | GI50 [19]: > 100 µM | TGI [19]: > 100 µM | GI50 [20]: > 100 µM | TGI [20]: > 100 µM | GI50 [21]: 2.98 µM | TGI [21]: > 100 µM | GI50 [22]: 2.72 µM | TGI [22]: 11.6 µM | GI50 [23]: > 100 µM | TGI [23]: > 100 µM | GI50 [24]: 16.8 µM | TGI [24]: > 100 µM | GI50 [25]: > 100 µM | TGI [25]: > 100 µM | GI50 [26]: > 100 µM | TGI [26]: > 100 µM

CC(C)OC(=O)NCCn1cc(-c2ccccc2)nn1
TGI [2]: > 100 µM | TGI [27]: > 100 µM | TGI [28]: > 100 µM | TGI [29]: > 100 µM | TGI [3]: > 100 µM | TGI [30]: > 100 µM | TGI [4]: > 100 µM | TGI [6]: > 100 µM | TGI [7]: > 100 µM | TGI [8]: > 100 µM | TGI [31]: > 100 µM | TGI [32]: > 100 µM | TGI [33]: > 100 µM | TGI [9]: > 100 µM | TGI [34]: > 100 µM | TGI [35]: > 100 µM | TGI [10]: > 100 µM | TGI [36]: > 100 µM | TGI [37]: > 100 µM | TGI [11]: > 100 µM | TGI [38]: > 100 µM | TGI [39]: > 100 µM | TGI [40]: > 100 µM | TGI [13]: > 100 µM | TGI [41]: > 100 µM | TGI [14]: > 100 µM | TGI [42]: > 100 µM | TGI [15]: > 100 µM | TGI [43]: > 100 µM | TGI [16]: > 100 µM | TGI [44]: > 100 µM | TGI [17]: > 100 µM | TGI [18]: > 100 µM | TGI [19]: > 100 µM | TGI [45]: > 100 µM | TGI [46]: > 100 µM | TGI [47]: > 100 µM | TGI [20]: > 100 µM | TGI [22]: > 100 µM | TGI [23]: > 100 µM | TGI [24]: > 100 µM | TGI [48]: > 100 µM | TGI [49]: > 100 µM | TGI [50]: > 100 µM | TGI [25]: > 100 µM | TGI [51]: > 100 µM | TGI [26]: > 100 µM | TGI [52]: > 100 µM
